The source of these data is patent publication US8883841B2, “Oncogenic ras-specific cytotoxic compound and methods of use thereof” (The Board of Regents of the University of Texas System, priority 2005, dated 2014).

Entries after “also recorded” stand apart in the source; their conditions may differ. Where two headings read alike, the source gives them in different places.

For one data set, the system named is SC35. The data set is described as follows: Antibody staining, subcellular localization of SC35 (spliceosome). The format is cell-based, human. An excerpt: Effects on RNA spliceosome. To investigate the nature of this PKCiota aggregates in the nucleus, the effect of Oncrasin-1 on SC35, a protein required for RNA splicing and assembly of spliceosome (Fu et al., 1992; Vellard et al., 1992), and on Rad51, a homologous DNA recombinase that involves in DNA repair (Benson et al., 1994; Baumann et al., 1996) were studied. […] and DNA repairing are the two important functions executed in the nucleus. In untreated or DMSO-treated cells, SC35 was localized in nucleus as speckles, either diffusely distributed or concentrated as granule clusters (Mistele et al., 1997), whereas Rad51 was more uniformly distributed inside the nucleus. […] This aggregation of SC35 was not observed in Oncrasin resistant T29 cells upon the treatment with Oncrasin-1. […] The effects of Oncrasin on another spliceosome protein, alternative splicing factor/splicing factor 2 (ASF/SF2), was studied (Krainer et al., 1991). […] In the resistant T29 cells, however, such an aggregation is not observed (FIG. 8C).

A further data set deals with Icmt−/− MEF. Briefly: Icmt-dependent growth inhibition, Icmt−/− MEF. The settings on record: up to 100 μM. The format is cell-based, mouse. The source says:
Oncrasin and Oncrasin Analogs. Chemically, Oncrasin-1 has the same core structure as indole-3-carbinol, a naturally occurring constituent of many plant foods that has been tested for the prevention and treatment of cancer (Brignall, 2001; Kelloff et al., 1996; Chinni et al., 2001). Oncrasin-1 also has structural similarity to sulindac (Taylor et al., 2000; Sun et al., 2002) and lonidamine (Ravagnan et al., 1999; Papaldo et al., 2003), both of which have been evaluated preclinically and clinically for treatment of cancers. […] Oncrasin compounds also bear a indole core structure as the small-molecule inhibitor of isoprenylcysteine carboxylmethyltransferase (Icmt), 2-[5-(3-methylphenyl)-1-octyl-1H-indol-3-yl]acetamide (cysmethynil), which also induces antitumor activity in Ras gene mutant cancer cells (Winter-Vann et al., 2005). […] Both wild-type MEF and Icmt−/− MEF (Bergo et al., 2004) (kindly provided by Dr. S G Young at the University of California, San Francisco) were resistant to Oncrasin-1.

In data set [1] the test system is PKCiota knockdown T29Kt1 cells. The data set is described as follows: Cell viability in stable PKCiota knockdown T29Kt1 cells. The data set is classed as cell-based, human. On the procedure:
Knockdown of PKCiota suppressed Oncrasin-mediated apoptosis and cytotoxicity. To investigate possible role of PCKiota in Oncrasin-1 mediated cytotoxicity, PKCiota was knocked down in H460 cells by using oligo ribonucleotides. H460 cells were treated with 200 pM PKCiota siRNA for 24 h, and then with DMSO or 1 μM Oncrasin for another 12 h. After that, cells harvested for analysis of apoptosis by fluorescence-activated cell sorting (FACS) and for expression of PKCiota by Western blot analysis. […] To further study the effect of atypical PKC in Oncrasin-induced cytotoxicity, the inventors obtained plasmids encoding PKCiota and PKCzeta siRNA from Origene Corporation and made stable PKCiota and PKCzeta knockdown T29Kt1 cells. […] The IC50 in PKCiota knockdown T29Kt1 cells were 100 fold higher than parental T29K cells. […] Thus, compounds with synthetic lethality for PKCiota might be useful for treatment of those cancers.

The test system of a further data set is caspase-3 and caspase-8. The data set is described as follows: Western blot for cleavage/activation of caspase-3 and caspase-8 in H460 cells. The format is cell-based, human. The following applies: 1 μM, 6 to 24 h, listed as Oncrasin-1. On the procedure:
Apoptosis induction in H460 cells was also analyzed. H460 cells were treated with 1 μM of Oncrasin-1 for 6 to 24 h. Cells treated with DMSO were used as controls. The cell lysates were then used for a western blot assay to detect the cleavage of caspase-3 and caspase-8. […] After treatment with Oncrasin-1, the expression of some molecules involved in Ras signaling pathways was also evaluated. […] Active Raf-1 can be translocated to mitochondria where it executes antiapoptosis signaling by interaction with Bad or other protein substrates. Raf-1 is also a pivotal regulator of endothelial cell survival during angiogenesis. Ablation of Raf-1 renders cells hypersensitive to apoptosis despite normal regulation of extracellular signal-regulated kinases. Thus, it is possible to induce antitumor activity by suppressing raf-1.
Induction of apoptosis by Oncrasin. Many antitumor therapies act by inducing apoptosis in tumor cells (Fisher, 1994; Thompson, 1995). To determine whether the antitumor activity of Oncrasin-1 is due to the suppression of cell proliferation or to cell killing, T29, T29Kt1, and H460 cells were stained with annexin V/propidium iodide (PI) after treatment with Oncrasin-1 at 30 μM (for T29 or T29Kt1 cells) or 3 μM (for H460 cells). […]
(In general: In western blotting, separated proteins are transferred to a membrane and probed.)

On to `O=Cc1cn(Cc2ccc(Cl)cc2)c2ccccc12` [Oncrasin K001, 1H-Indole-3-carboxaldehyde, 1-[(4-chlorophenyl)methyl]-(9CI)], for which the “SC35 localization, T29Kt1 cells” value in the data set with SC35 is “aggregation of SC35 into several large foci”. For the same compound, the “SC35 aggregation, T29 cells” value in the data set on SC35 (Oncrasin resistant cells) is “not observed”. For the same compound, in the data set with Icmt−/− MEF, the “growth inhibition, Icmt−/− MEF” value is “resistant”. The “toxicity to T29 cells” value with T29 cells (at 33 μM (the highest concentration tested)) and in the data set with T29 cells (at any of the doses tested (dose response)) was “not toxic” throughout. Moreover, the “cytotoxicity in T29 cells” value in the data set on T29 cells (up to 100 μM, the highest concentration tested) is given as “no detectable cytotoxicity”. Besides, in data set [1] (cell viability analysis), the “susceptibility of stable PKCiota knockdown T29Kt1 cells” value is “almost complete resistance”. In addition, the “IC50 in PKCiota knockdown T29Kt1 cells relative to parental T29K cells” value in data set [1] (stable knockdown) worked out at 100 fold. Further, the “activation of caspase-3 and caspase-8” value in the data set with caspase-3 and caspase-8 is “effectively activated caspase-3 and caspase-8; also recorded: Activation of caspase-3 and caspase-8 was detected; also recorded: effectively induce caspase-3 and caspase-8 activation”.
